According to patent publication US8618286B2, “Benzoxazines, benzothiazines, and related compounds having NOS inhibitory activity” (NeurAxon, Inc., priority 2008, dated 2013):

How the values were obtained:
[1] = target: Recombinant human inducible NOS (iNOS) (Homo sapiens (Human), UniProt P35228); test: Human iNOS enzyme assay (Protocol 1 or Protocol 2, radiometric); assay type: biochemical
Experimental: The human iNOS assay was carried by either one of the two protocols as described herein:
Recombinant human inducible NOS (iNOS) was produced in Baculovirus-infected Sf9 cells (ALEXIS). In a radiometric method, NO synthase activity was determined by measuring the conversion of [^3H]L-arginine to [^3H]L-citrulline. To measure iNOS, 10 μL of enzyme was added to 100 μL of 100 mM HEPES, pH=7.4, containing 1 mM CaCl2, 1 mM EDTA, 1 mM dithiothreitol, 1 μM FMN, 1 μM FAD, 10 μM tetrahydrobiopterin, 120 μM NADPH, and 100 nM CaM.
To measure enzyme inhibition, a 15 μL solution of a test substance was added to the enzyme assay solution, followed by a pre-incubation time of 15 min at RT. The reaction was initiated by addition of 20 μL L-arginine containing 0.25 μCi of [^3H] arginine/mL and 24 μM L-arginine. The total volume of the reaction mixture was 150 μL in every well. The reactions were carried out at 37° C. for 45 minutes, The reaction was stopped by adding 20 μL of ice-cold buffer containing 100 mM HEPES, 3 mM EGTA, 3 mM EDTA, pH=5.5. [^3H]L-citrulline was separated by DOWEX (ion-exchange resin DOWEX 50 W×8-400, SIGMA) and the DOWEX was removed by spinning at 12,000 g for 10 min in the centrifuge. An aliquot (70 μL) of the supernatant was added to 100 μL of scintillation fluid, and the samples were counted in a liquid scintillation counter (1450 Microbeta Jet, Wallac). Specific NOS activity was reported as the difference between the activity recovered from the test solution and that observed in a control sample containing 240 mM of the inhibitor L-NMMA. All assays were performed at least in duplicate. Standard deviations are 10% or less.
Primary stock solutions of each test compound were prepared in distilled water on the day of study to obtain a final concentration of 6 mM. For the determination of IC50 values, 11 test compound concentrations were prepared as 3-fold serial dilutions. Test compounds were tested in the iNOS assay at a concentration of 1000 μM to 0.0169 μM. The vehicle of the test compound or inhibitor, distilled water, was used as blank control. For non-specific activity, 100 μM L-NMMA was run in parallel as a control.
All incubations were performed in duplicate
The reaction mixture was prepared on ice by the addition of the following components to the appropriate well of a 1.0 mL 96-well polypropylene plate:
10 μL of test compound, reference inhibitor, or control (vehicle or L-NMMA) solution;
25 μL of Reaction Buffer (50 mM Tris-HCl, 6 μM BH4, 2 μM FMN, 2 μM FAD);
5 μL of 10 mM NADPH solution;
5 μL of 1 μM Calmodulin; and
The reaction mixture was pre-incubated at room temperature for 15 minutes. Following this pre-incubation, the reaction was initiated by the addition of 5 μL of the substrate L-arginine (1 μCi of [^3H]-L-Arginine+30 μM of unlabeled L-Arginine) to the reaction mixture. The total reaction volume was 60 μL. The assay plate containing the reaction mixtures was sealed and incubated at 37° C. for 30 minutes. At the end of this incubation period, 400 μL of ice-cold Stop Buffer (the EDTA in the Stop Buffer chelates all of the available calcium) was added to each well to stop the reaction. 100 μL of equilibrated resin pH 5.5 was added to each of the assay wells. The reaction samples were vortexed and transferred to spin cups, after-which they were centrifuged at 13,000 rpm for 30 sec. The spin cups were removed from the holder and […] (containing the unbound L-citrulline) were added to the appropriate wells of a 96-well liquid scintillation plate. 175 μL of scintillation fluid were also added to each well. The plate was sealed, and radioactivity was quantitated using a Microbeta liquid scintillation counter.
Data were analyzed using a Sigmoidal dose-response (variable slope) curve to determine the IC50 value of the test compound. Y=Bottom+(Top−Bottom)/(1+10^((Log IC50−X)*Hill Slope))

[2] = test system: dural inflammation model of migraine; test: Dural inflammation rat model of migraine; assay type: in vivo; details: rats, 3 mg/kg p.o., about 15 min pre-IS, measured up to 6 hours post IS
Experimental: These features mimic the characteristic often seen in migraineurs during a headache, especially when treatment is delayed, and the development of central sensitization has occurred (Burstein et al., Ann. Neurol. 47:614-624, 2000; Burstein et al., Brain, 123:1703-1709, 2000). Compound (8) was tested in a dural inflammation model of migraine according to previously described procedures (WO 2007/120830 or as described in US-2008-0031822-A1). Baseline paw withdrawal thresholds were recorded approximately 30 min before the IS administration by application of calibrated von Frey filaments to the hindpaws to measure tactile allodynia. Approximately 15 minutes pre-IS administration, the test compound in water was administered by oral gavage (1 mL/kg) at a dose of 3 mg/kg per os (p.o.). Measurements of tactile allodynia were recorded at 1 hour intervals up to 6 hours post IS administration.

IC50 [1]: 70.6 µM
Structure (SMILES): CNCCN1CCSc2cc(NC(=N)c3cccs3)ccc21 [Compound 8, N-(4-(2-(methylamino)ethyl)-3,4-dihydro-2H-benzo[b][1,4]thiazin-7-yl)thiophene-2-carboximidamide]
antiallodynic effect (tactile allodynia, hindpaw) [2]: antiallodynic effect
